Assay results from ChEMBL document CHEMBL1201862, “PubChem BioAssay data set” (2004).
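Grown in 96-well plates, cells were treated for 48 hours with each compound at five concentrations. Insufficient inhibition: endpoint recorded as highest concentration tested. Abbreviation: GI50, concentration required for 50% inhibition of growth.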 The source made the active and inactive calls. Cut-off read from the data, not from the text of the source: active = GI50 up to about 1.1 µM and inactive = higher.

Assays:
Experiment in all cases: NCI tumour cell line growth inhibition, 48 h
[1] = tested on: DU-145
[2] = tested on: TK-10
[3] = tested on: A549
[4] = tested on: UO-31
[5] = tested on: RXF 393
[6] = tested on: IGROV-1
[7] = tested on: SK-MEL-28
[8] = tested on: BT-549
[9] = tested on: HOP-92
[10] = tested on: MDA-N
[11] = tested on: A498
[12] = tested on: HL-60
[13] = tested on: KM12
[14] = tested on: SK-MEL-2
[15] = tested on: OVCAR-4
[16] = tested on: SNB-75
[17] = tested on: M14
[18] = tested on: HOP-62
[19] = tested on: NCI/ADR-RES
[20] = tested on: UACC-62

Compound | GI50 [1] | GI50 [2] | GI50 [3] | GI50 [4] | GI50 [5] | GI50 [6] | GI50 [7] | GI50 [8] | GI50 [9] | GI50 [10] | GI50 [11] | GI50 [12] | GI50 [13] | GI50 [14] | GI50 [15] | GI50 [16] | GI50 [17] | GI50 [18] | GI50 [19] | GI50 [20]
CC1(C)C2CCC1(C)[C@H](n1c(=O)n([C@@H]3CC4CCC3(C)C4(C)C)c(=O)n([C@@H]3CC4CCC3(C)C4(C)C)c1=O)C2 | 55.7 µM (inactive) | 42.9 µM (inactive) | 31.8 µM (inactive) | 38.7 µM (inactive) | 19.8 µM (inactive) | 65.6 µM (inactive) | 92 µM (inactive) | 67.1 µM (inactive) | 87.7 µM (inactive) | 68.4 µM (inactive) | 88.5 µM (inactive) | 23.9 µM (inactive) | 58.1 µM (inactive) | 22.3 µM (inactive) | > 100 µM (inactive) | 16.2 µM (inactive) | > 100 µM (inactive) | 44.4 µM (inactive) | > 100 µM (inactive) | –
CCCCCCCCOC(=O)C12Oc3ccc(-c4ccc5c(c4O)C(=O)C4=C(O)CC(C)C(O)C4(C(=O)OCCCCCCCC)O5)c(O)c3C(=O)C1=C(O)CC(C)C2O (stereo not drawn) | 34.4 µM (inactive) | 15.5 µM (inactive) | 4.79 µM (inactive) | 24.7 µM (inactive) | 2.7 µM (inactive) | 8.67 µM (inactive) | 18.2 µM (inactive) | 9.59 µM (inactive) | 8.45 µM (inactive) | 18 µM (inactive) | 23.5 µM (inactive) | 2.92 µM (inactive) | 10.8 µM (inactive) | 7.87 µM (inactive) | 19.6 µM (inactive) | 4.99 µM (inactive) | 26.2 µM (inactive) | – | 30.7 µM (inactive) | 15.8 µM (inactive)
C[C@@]1(O)C[C@@H](N2C(=O)O[C@@H](c3ccccc3)[C@H]2c2ccccc2)[C@@H]1COCc1ccccc1 | 28.5 µM (inactive) | 29.2 µM (inactive) | 22.6 µM (inactive) | 21.6 µM (inactive) | 18.8 µM (inactive) | 25 µM (inactive) | 18.2 µM (inactive) | 17.5 µM (inactive) | 19 µM (inactive) | 16.2 µM (inactive) | 18.4 µM (inactive) | 6.35 µM (inactive) | 19.6 µM (inactive) | 12.7 µM (inactive) | 22.9 µM (inactive) | – | 15.8 µM (inactive) | 29.2 µM (inactive) | 15.2 µM (inactive) | 11.3 µM (inactive)
c1cc(-c2ccc(-c3ccc(-c4ccc(-c5ccncc5)o4)cc3)o2)ccn1 | 15 µM (inactive) | 17 µM (inactive) | 18.4 µM (inactive) | 21.5 µM (inactive) | > 100 µM (inactive) | 19.1 µM (inactive) | 21.2 µM (inactive) | 15.7 µM (inactive) | 30.5 µM (inactive) | 16.7 µM (inactive) | > 100 µM (inactive) | 18.5 µM (inactive) | 15.3 µM (inactive) | – | 14.9 µM (inactive) | 18.9 µM (inactive) | 17.7 µM (inactive) | 22.1 µM (inactive) | 31.2 µM (inactive) | 17.9 µM (inactive)
Cc1ccc2c(O)cc(-c3ccc(C)s3)nc2n1 | 0.993 µM (active) | 19.3 µM (inactive) | 0.531 µM (active) | 0.439 µM (active) | 0.656 µM (active) | 0.44 µM (active) | – | 0.804 µM (active) | 5.21 µM (inactive) | 0.0213 µM (active) | 0.762 µM (active) | 0.0775 µM (active) | 0.0912 µM (active) | 59.3 µM (inactive) | 12.7 µM (inactive) | 0.254 µM (active) | 0.303 µM (active) | 1.07 µM (active) | 0.129 µM (active) | 0.35 µM (active)
CC1(C)CC(=O)c2c(N)n[nH]c2C1 | > 100 µM (inactive) | – | > 100 µM (inactive) | > 100 µM (inactive) | > 100 µM (inactive) | > 100 µM (inactive) | > 100 µM (inactive) | > 100 µM (inactive) | > 100 µM (inactive) | > 100 µM (inactive) | > 100 µM (inactive) | > 100 µM (inactive) | > 100 µM (inactive) | > 100 µM (inactive) | > 100 µM (inactive) | > 100 µM (inactive) | > 100 µM (inactive) | > 100 µM (inactive) | > 100 µM (inactive) | > 100 µM (inactive)
OC1(c2cc3ccccc3s2)CCCCC1 | 63.2 µM (inactive) | 64.4 µM (inactive) | 40.8 µM (inactive) | 51.1 µM (inactive) | 39.4 µM (inactive) | 87.5 µM (inactive) | 81.3 µM (inactive) | 55.7 µM (inactive) | 18 µM (inactive) | 38.4 µM (inactive) | 43.2 µM (inactive) | 37.7 µM (inactive) | 41.3 µM (inactive) | – | 39.2 µM (inactive) | 35.1 µM (inactive) | 66.8 µM (inactive) | > 100 µM (inactive) | 47.2 µM (inactive) | 69.7 µM (inactive)
NS(=O)(=O)c1nnc(NC(=O)CCC(=O)O)s1 | > 100 µM (inactive) | > 100 µM (inactive) | > 100 µM (inactive) | > 100 µM (inactive) | > 100 µM (inactive) | – | > 100 µM (inactive) | > 100 µM (inactive) | > 100 µM (inactive) | > 100 µM (inactive) | > 100 µM (inactive) | > 100 µM (inactive) | > 100 µM (inactive) | > 100 µM (inactive) | > 100 µM (inactive) | – | > 100 µM (inactive) | > 100 µM (inactive) | > 100 µM (inactive) | > 100 µM (inactive)
O=[N+]([O-])c1ccc2c(c1)n1c(N3CCCC3)[n+]3ccccc3c1c1c3ccccn3c(N3CCCC3)[n+]21.[O-][Cl+3]([O-])([O-])[O-].[O-][Cl+3]([O-])([O-])[O-] | > 100 µM (inactive) | > 100 µM (inactive) | > 100 µM (inactive) | – | > 100 µM (inactive) | > 100 µM (inactive) | > 100 µM (inactive) | > 100 µM (inactive) | > 100 µM (inactive) | > 100 µM (inactive) | > 100 µM (inactive) | 32 µM (inactive) | > 100 µM (inactive) | > 100 µM (inactive) | > 100 µM (inactive) | 44 µM (inactive) | > 100 µM (inactive) | – | > 100 µM (inactive) | > 100 µM (inactive)
C=C(Cl)C(Cl)(CBr)CCCC(C)C (stereo not drawn) | 11.5 µM (inactive) | 16.4 µM (inactive) | 21.4 µM (inactive) | 16.3 µM (inactive) | 7.69 µM (inactive) | > 100 µM (inactive) | 19.4 µM (inactive) | > 85.9 µM (inactive) | 17.2 µM (inactive) | 22 µM (inactive) | 19.4 µM (inactive) | 12.1 µM (inactive) | 11.8 µM (inactive) | – | 33 µM (inactive) | 8.83 µM (inactive) | > 100 µM (inactive) | 13.7 µM (inactive) | 27 µM (inactive) | > 63.5 µM (inactive)
CCOc1ccc(N2C(=O)NC3(c4ccccc4)N(C)C(=O)N(C)C23c2ccccc2)cc1 (stereo not drawn) | > 100 µM (inactive) | – | 56.8 µM (inactive) | 92.9 µM (inactive) | 66.4 µM (inactive) | > 100 µM (inactive) | > 100 µM (inactive) | 83.9 µM (inactive) | > 100 µM (inactive) | 62.4 µM (inactive) | > 100 µM (inactive) | 75.2 µM (inactive) | 55.3 µM (inactive) | > 100 µM (inactive) | – | 12.4 µM (inactive) | > 100 µM (inactive) | > 100 µM (inactive) | 63.1 µM (inactive) | 86.3 µM (inactive)
CN(CCc1ccc(Cl)c(Cl)c1)[C@H]1CCCC[C@H]1N1CCCC1 | > 100 µM (inactive) | > 100 µM (inactive) | > 100 µM (inactive) | > 100 µM (inactive) | > 100 µM (inactive) | > 100 µM (inactive) | > 100 µM (inactive) | > 100 µM (inactive) | > 100 µM (inactive) | > 100 µM (inactive) | > 100 µM (inactive) | > 100 µM (inactive) | > 100 µM (inactive) | > 100 µM (inactive) | > 100 µM (inactive) | – | > 100 µM (inactive) | > 100 µM (inactive) | > 100 µM (inactive) | > 100 µM (inactive)
Nc1nc(Cl)cc(NCC2(CO)CC(OCc3ccccc3)C2)n1 (stereo not drawn) | > 100 µM (inactive) | 19.4 µM (inactive) | 54.8 µM (inactive) | > 100 µM (inactive) | 14.2 µM (inactive) | > 100 µM (inactive) | > 100 µM (inactive) | 35.9 µM (inactive) | > 100 µM (inactive) | > 100 µM (inactive) | 16.9 µM (inactive) | 27.3 µM (inactive) | > 100 µM (inactive) | > 100 µM (inactive) | 27.5 µM (inactive) | 16.4 µM (inactive) | – | 68.4 µM (inactive) | 36.1 µM (inactive) | 96.4 µM (inactive)
OCC1OC(O[C@H]2CN3[C@H](O)[C@@H](O)[C@H](O)[C@H]3C2O)C(O)C(O)C1O (stereo partly drawn) | > 100 µM (inactive) | > 100 µM (inactive) | > 100 µM (inactive) | > 100 µM (inactive) | > 100 µM (inactive) | > 100 µM (inactive) | > 100 µM (inactive) | > 100 µM (inactive) | > 100 µM (inactive) | > 100 µM (inactive) | > 100 µM (inactive) | > 100 µM (inactive) | > 100 µM (inactive) | > 100 µM (inactive) | > 100 µM (inactive) | – | > 100 µM (inactive) | > 100 µM (inactive) | > 100 µM (inactive) | > 100 µM (inactive)
